Data on four molecules can be found in patent publication US20250059166A1, “PIPERIDINYLPYRIDINYLCARBONITRILE DERIVATIVES AS INHIBITORS OF GLUTAMINYL-PEPTIDE CYCLOTRANSFERASE AND GLUTAMINYL-PEPTIDE CYCLOTRANSFERASE LIKE PROTEIN” (Boehringer Ingelheim International GmbH, priority 2023, published 2025).

Broadly, the efflux ratio is the permeability from basolateral to apical divided by that in the opposite direction, in the common usage. A word on the Papp A→B: it is the apparent permeability from the apical to the basolateral side of a cell layer. Low values mean poor permeation, high ones ready permeation. What is called IC50 is the concentration at which inhibition is half-maximal.

SMILES strings stand for the structures. Where only a bound is given, the exact number is not on record here.

A short description of data set [1]: Assay C: permeability in CACO-2 cells. It is filed as in vitro ADME. The conditions noted are these: human, pH 7.2, compounds of the invention; for efflux ratio at 2 h: Caco-2, permeability B-A / permeability A-B; for Papp A→B at 2 h: Caco-2, apical to basolateral. Here is the method:
Caco-2 cells (1-2×10^5 cells/1 cm^2 area) are seeded on filter inserts (Costar transwell polycarbonate or PET filters, 0.4 μm pore size) and cultured (DMEM) for 10 to 25 days. Compounds are dissolved in appropriate solvent (like DMSO, 1-20 mM stock solutions). […] The transport solution (TL) is applied to the apical or basolateral donor side for measuring A-B or B-A permeability (3 filter replicates), respectively. Samples are collected at the start and end of experiment from the donor and at various time intervals for up to 2 hours also from the receiver side for concentration measurement by HPLC-MS/MS or scintillation counting. Sampled receiver volumes are replaced with fresh receiver solution.
Efflux ratio(ER)=permeabilityB−A/permeabilityA−B
(In general: Caco-2 cells form a polarised layer with tight junctions and transporters.)

Data set [2] concerns SIRPα signalling induced by A549 cells. Description: Assay B: SIRPα signalling assay using A549 cells. Type of data set: cell-based. The conditions noted are these: Homo sapiens; compounds of the invention; A549 cells 48 h, Jurkat PathHunter SIRPαV1 reporter cells 5 h; read-out: Inhibition of SIRPα signalling induced by A549 cells: IC50. The protocol: (§1) Two cell types are independently used: the Raji cell line (lymphoblast-like human cell line derived from B lymphocytes from a Burkitt's lymphoma patient in 1963) and A549 cells (adenocarcinoma human alveolar basal epithelial cells).
(§2) Test compounds were dissolved in 100% DMSO and serially diluted into a white 384-well microtiter cell culture plate (PerkinElmer #60076780 in case of Raji assay; PDL-coated plates Greiner #781945 in case of A549 assay). 5000 Raji cells (ATCC #CC86) or 5000 A549 cells (ATCC #CCL-185) in Assay Complete Cell Plating reagent 30 (DiscoverX 93-0563R30B) were added per well. The assay plate was incubated for 48 h at 37° C., 95% humidity and 5% CO2. 15000 reporter cells (Jurkat PathHunter SIRPαV1, DiscoverX #93-1135C19) were added to each well, and the plate was incubated for 5 h at 37° C., 95% humidity and 5% CO2. Bioassay reagent 1 of the PathHunter Bioassay detection kit (DiscoverX 93-0001) was added to each well of the plate using a multichannel pipette followed by a 15 min incubation at room temperature. Afterwards bioassay reagent 2 was added followed by 60 min incubation at room temperature (incubation in the dark).
(§3) The analysis of the data was performed using the luminescence signal generated by beta-galactosidase in the PathHunter reporter cell line. The luminescence measurement was done using a Pherastar Multi-Mode Reader. Dose-response curves & IC50 data were calculated with 4-parameter sigmoidal dose response formula.

The target of a further data set is T1, QPCTL (Homo sapiens, UniProt Q9NXS2).
T1 construct: made in house
T1 sequence (Q9NXS2 whole entry): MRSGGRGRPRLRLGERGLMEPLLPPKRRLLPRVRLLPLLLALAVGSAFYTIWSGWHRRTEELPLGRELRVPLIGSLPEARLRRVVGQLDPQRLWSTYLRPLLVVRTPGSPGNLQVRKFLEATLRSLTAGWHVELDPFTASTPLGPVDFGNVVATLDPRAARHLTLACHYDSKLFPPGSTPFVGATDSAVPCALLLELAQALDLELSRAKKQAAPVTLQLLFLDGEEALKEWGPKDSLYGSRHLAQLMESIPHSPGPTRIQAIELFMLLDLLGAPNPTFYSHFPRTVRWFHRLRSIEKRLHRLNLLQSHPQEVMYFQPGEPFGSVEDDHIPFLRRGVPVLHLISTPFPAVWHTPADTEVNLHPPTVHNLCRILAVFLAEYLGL
As to the kind of experiment: Assay A: biochemical QPCTL activity assay (MALDI-TOF MS, CD47 peptide substrate). The note with it: compounds of the invention; 0.5 nM enzyme, 10 μM CD47 peptide substrate; read-out: Inhibition of QPCTL: IC50. The protocol:
(§4) QPCT or QPCTL dependent conversion of N-terminal glutamine to pyroglutamate of CD47 was monitored via MALDI-TOF MS. Test compounds were dissolved in 100% DMSO and serially diluted into clear 1,536-well microtiter plates. Enzymatic reactions were set up in assay buffer containing 20 mM Tris pH 7.5, 0.1 mM TCEP, 0.01% BSA, and 0.001% Tween20. […] The plates were incubated for 10 min in a humidified incubator at 24° C. Subsequently, 2.5 μL of CD47 peptide substrate surrogate (^19[…]^33) was added to each well (final concentration: 10 μM for QPCTL/20 μM for QPCT). The plates were mixed for 30 sec at 1,000 rpm and subsequently incubated for 40 min in a humidified incubator at 24° C. […] The plates were sealed with an adhesive foil, mixed for 30 s at 1,000 rpm and stored at room temperature until preparation of the MALDI target plates. […] QPCT or QPCTL activity was monitored by calculating the ratio between product and internal standard signals followed by normalization to high (100% activity) and low (0% activity) controls. Determination of compound potencies was obtained by fitting the dose-response data to a four-parameter logistical equation.

For a further data set, the target named is T2, QPCT (Homo sapiens, UniProt Q16769).
T2 construct: purchased Origine (so in the source)
T2 sequence (Q16769 29-361): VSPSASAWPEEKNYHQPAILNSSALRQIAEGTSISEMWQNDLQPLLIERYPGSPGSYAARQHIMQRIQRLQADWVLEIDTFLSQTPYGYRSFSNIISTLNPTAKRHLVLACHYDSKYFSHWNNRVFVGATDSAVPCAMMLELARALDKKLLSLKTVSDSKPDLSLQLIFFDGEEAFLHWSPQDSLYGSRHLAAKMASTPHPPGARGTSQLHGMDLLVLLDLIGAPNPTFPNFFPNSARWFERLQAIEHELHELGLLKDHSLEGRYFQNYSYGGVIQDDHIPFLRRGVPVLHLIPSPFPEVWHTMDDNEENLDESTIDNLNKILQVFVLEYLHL
As to the kind of experiment: Assay A: biochemical QPCT activity assay (MALDI-TOF MS, CD47 peptide substrate). The conditions noted are these: compounds of the invention; 0.5 nM enzyme, 20 μM CD47 peptide substrate; read-out: Inhibition of QPCT: IC50. Here is the method:
as §4

Data set [3] concerns SIRPα signalling induced by Raji cells. Description: Assay B: SIRPα signalling assay using Raji cells. It is filed as cell-based. The conditions noted are these: Homo sapiens; compounds of the invention; Raji cells 48 h, Jurkat PathHunter SIRPαV1 reporter cells 5 h; read-out: Inhibition of SIRPα signalling induced by Raji cells: IC50. Here is the method:
as §1, §2, §3

As to `Cn1cnnc1C1(F)CCN(c2c(-c3cnc4nn(C(C)(C)C)cc4c3)ncc(Cl)c2C#N)CC1` [Example 38], the efflux ratio at 2 h in data set [1] was found to be 10.9. For the same molecule, the Papp A→B at 2 h in data set [1] worked out at 6.6 ×10⁻⁶ cm/s. The IC50 in data set [2] is 6 nM; at QPCTL, 1 nM; at QPCT, below 1 nM; in data set [3] it was 21 nM.

In the case of `Cn1cnnc1C1(F)CCN(c2c(-c3ccc(F)nc3)ncc(Cl)c2C#N)CC1` [Example 39], the efflux ratio at 2 h in data set [1] came out at 2.9. Further, the Papp A→B at 2 h in data set [1] came out at 16 ×10⁻⁶ cm/s. Further, the half-inhibitory concentration (IC50) turned out to be 106 nM in data set [2], 3 nM on QPCTL, 6 nM on QPCT and 247 nM in data set [3].

Turning to `Cn1cnnc1C1(F)CCN(c2c(-c3ccc(F)nc3)ncc(C(F)(F)F)c2C#N)CC1` [Example 40], the efflux ratio at 2 h in data set [1] was 2.8. Moreover, in data set [1], the apical-to-basolateral permeability (Papp A→B) at 2 h was 18 ×10⁻⁶ cm/s. The concentration for half-maximal inhibition (IC50) in data set [2] was 115 nM; at QPCTL, 4 nM; on QPCT it was 5 nM; in data set [3] it was 258 nM.

Take `Cc1cnc(-c2ccc(F)nc2)c(N2CCC(F)(c3nncn3C)CC2)c1C#N` [Example 41]: the efflux ratio at 2 h in data set [1] was 2.6. The same molecule yielded a Papp A→B at 2 h in data set [1] of 28 ×10⁻⁶ cm/s. Moreover, the IC50 in data set [2] was determined as 16 nM; on QPCTL it was 1 nM; on QPCT, 2 nM; in data set [3] it was 71 nM.
